Experimental data from patent US20250154197A1, “LIPOLYTIC PEPTIDES” (FUNDACIÓ HOSPITAL UNIVERSITARI VALL D'HEBRON - INSTITUT DE …, priority 2021, published 2025).
Where no end group is shown, it is not given here. [ ]: non-standard residue; d: D form.

Key:
Format in all cases: cell-based
[1] = test system: differentiated human subcutaneous adipocytes; test: Time course lipolytic activity: glycerol release at 120' and 240'; details: for Lipolytic activity measured as glycerol release: 10 ug/ml, human subcutaneous adipocytes
Protocol: At the end of the experiment, supernatants were collected and glycerol content was measured using a Lipolysis Assay kit from Tebu-bio (LIP-1—NC) following the manufacturer's instructions.

[2] = test system: human subcutaneoous mature adipocytes; test: Lipolytic activity: glycerol release in human adipocytes (Lipolysis Assay kit); details: 100 μg/ml; human subcutaneous mature adipocytes
3T3-L1 mouse adipocytes = test: Lipolytic activity: glycerol release in differentiated 3T3-L1 mouse adipocytes (12 h); details: for Lipolysis Activity measured as Glycerol (μM) release in media: 3T3-L1 mouse adipocytes, 12 h

Compound | lipolytic activity at 120' ([1]; 120', 10 μg/ml) | Lipolytic activity measured as glycerol release ([1]; 120 min) | Lipolytic activity measured as glycerol release ([1]; 240 min) | Lipolysis Activity measured as Glycerol (μM) release in media [2] | Lipolysis Activity measured as Glycerol (μM) release in media (3T3-L1 mouse adipocytes; 100 μg/ml) | Lipolytic activity measured as glycerol release ([1]; 120 min, listed as SEQ ID NO: 3) | Lipolytic activity measured as glycerol release ([1]; 240 min, listed as SEQ ID NO: 3) | fold more efficient in inducing lipolysis vs caffeine or SEQ ID NO:2 ([1]; time 120', 10 μg/ml) | fold more efficient in inducing lipolysis vs caffeine or SEQ ID NO:2 ([1]; time 240', 10 μg/ml) | Lipolysis Activity measured as Glycerol (μM) release in media (3T3-L1 mouse adipocytes; 1 μg/ml) | Lipolysis Activity measured as Glycerol (μM) release in media (3T3-L1 mouse adipocytes; 10 μg/ml) | increase in lipolytic activity compared to the L version (3T3-L1 mouse adipocytes; D-decapeptide vs L version (SEQ ID NO: 2)) | Lipolytic activity measured as glycerol release ([1]; 120 min, listed as SEQ ID NO: 2) | Lipolytic activity measured as glycerol release ([1]; 240 min, listed as SEQ ID NO: 2)
Cn1c(=O)c2c(ncn2C)n(C)c1=O [Caffeine] | neither caffeine nor the comparative peptide, at the same dose, provided any significant activity at that time | −3.0856 UM | 17.1602 UM | 35.53 µM | 297 µM |  |  |  |  |  |  |  |  | 
TWDPEGVIFY [GP3D] ([dT][dW][dD][dP][dE]G[dV][dI][dF][dY]) [N-term NH2, C-term COOH] |  |  |  |  | 580 µM | 24.8964 UM | 90.1603 UM | more than 24 fold | more than 5 fold | 538 µM | 574 µM | about 2 fold |  | 
TWDPEGVIFY [GP3L, comparative L-decapeptide; N-term NH2, C-term COOH, reference compound] |  |  |  |  | 360 µM |  |  |  |  | 230 µM | 250 µM |  | −0.5343 UM | 17.7363 UM
